Test results published in patent US8106055B2, “Substituted amide compounds” (Gruenenthal GmbH, priority 2007, dated 2012).

Experiments:
human μ opiate receptor = target: T1, human μ opiate receptor (Homo sapiens, UniProt P35372); experiment: Affinity for the human μ opiate receptor ([3H]-naloxone displacement, CHO-K1 receptor membrane preparation, SPA); type: binding; conditions: for μ (binding on the μ opioid receptor, % inhibition): test concentration of 1 μM; for inhibition at 1 µM: 1.5 h, Table 2, test concentration 1 μM, read-out: μ receptor
T1 construct: purchased PerkinElmer Life Sciences, Zaventem, Belgium RB-HOM; host or cells: CHO-K1 cells (membrane preparation)
Outline: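 Readout is percent displacement of [3H]-naloxone (1 nmol/l) from human μ receptor in CHO-K1 membranes, measured at 1 μmol/l compound. Incubation runs 90 minutes at room temperature with WGA-SPA beads in Tris-HCl/BSA buffer; non-specific binding is defined with 100 μmol/l naloxone.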

[1] = target: T2, serotonin (5-HT) reuptake (Rattus norvegicus, UniProt P31652); experiment: Inhibition of serotonin (5HT) reuptake in synaptosomes from rat brain; type: biochemical; conditions: for 5-HT (inhibition of reuptake of serotonin, % inhibition): test concentration of 10 μM; for inhibition at 10 µM: Table 2, test concentration 10 μM, read-out: 5-HT reuptake
T2 construct: synaptosomes are freshly isolated from areas of the rat brain; from tissue; host or cells: rat brain synaptosomes (P2 fraction)
Outline: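 Freshly isolated rat brain synaptosomes (P2 fraction) used for 5-HT reuptake. Test compound at 10 μM, activity given as % inhibition.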

T2 sequence (P31652 whole entry): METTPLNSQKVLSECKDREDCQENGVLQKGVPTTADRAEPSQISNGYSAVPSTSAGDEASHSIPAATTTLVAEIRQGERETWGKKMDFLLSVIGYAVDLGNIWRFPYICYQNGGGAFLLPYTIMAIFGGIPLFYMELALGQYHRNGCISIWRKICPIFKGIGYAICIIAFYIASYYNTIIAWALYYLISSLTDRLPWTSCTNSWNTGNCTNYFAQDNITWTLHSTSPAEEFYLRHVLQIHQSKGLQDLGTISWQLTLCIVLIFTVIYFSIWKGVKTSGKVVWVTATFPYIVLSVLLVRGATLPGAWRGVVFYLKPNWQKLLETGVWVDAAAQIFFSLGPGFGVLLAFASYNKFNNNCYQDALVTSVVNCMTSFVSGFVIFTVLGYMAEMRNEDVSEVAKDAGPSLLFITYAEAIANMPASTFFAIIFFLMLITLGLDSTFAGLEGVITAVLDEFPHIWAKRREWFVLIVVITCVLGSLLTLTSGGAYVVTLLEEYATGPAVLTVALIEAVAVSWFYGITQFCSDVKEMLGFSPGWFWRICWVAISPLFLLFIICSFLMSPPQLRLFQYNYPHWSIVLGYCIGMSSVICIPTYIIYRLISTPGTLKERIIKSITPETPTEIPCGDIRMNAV
T1 sequence (P35372 whole entry): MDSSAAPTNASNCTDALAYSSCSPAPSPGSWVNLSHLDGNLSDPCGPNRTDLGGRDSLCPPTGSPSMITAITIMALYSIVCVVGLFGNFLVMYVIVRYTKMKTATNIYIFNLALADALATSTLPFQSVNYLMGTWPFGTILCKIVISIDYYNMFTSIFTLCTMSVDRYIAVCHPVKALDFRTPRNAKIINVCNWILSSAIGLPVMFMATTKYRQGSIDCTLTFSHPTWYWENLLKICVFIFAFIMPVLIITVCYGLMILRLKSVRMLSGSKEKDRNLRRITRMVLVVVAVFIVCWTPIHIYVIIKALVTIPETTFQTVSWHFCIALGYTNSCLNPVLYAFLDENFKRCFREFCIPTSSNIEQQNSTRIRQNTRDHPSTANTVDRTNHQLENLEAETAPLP

| SMILES | μ (binding on the μ opioid receptor, % inhibition) (human μ opiate receptor) | 5-HT (inhibition of reuptake of serotonin, % inhibition) [1] | inhibition at 1 µM (human μ opiate receptor) | inhibition at 10 µM [1] |
| --- | --- | --- | --- | --- |
| COc1ccc(S(=O)(=O)N(C)CCOCC(=O)NCC2CCC(C(c3ccccc3)N(C)C)CC2)cc1 (stereo not drawn) [Example 242] | 77% | 77% | – | – |
| COc1ccc(S(=O)(=O)N2CCCCC2COCC(=O)NC2CCC(C(c3cccs3)N(C)C)CC2)cc1 (stereo not drawn) [Example 243] | 79% | 73% | – | – |
| CN(C)C(c1ccc(F)cc1)C1CCC(CCNC(=O)COC2CCCCC2N(C)S(=O)(=O)c2ccc(Cl)c(Cl)c2)CC1 (stereo not drawn) [Example 244] | 81% | 88% | – | – |
| CN(C)C(c1cccc(F)c1)C1CCC(NC(=O)COCCN(C)S(=O)(=O)c2ccc(OC(F)(F)F)cc2)CC1 (stereo not drawn) [Example 246] | 76% | 91% | – | – |
| CN(C)C(c1cccc(F)c1)C1CCC(CCNC(=O)COC2CCN(S(=O)(=O)c3ccc(Cl)cc3)C2)CC1 (stereo not drawn) [Example 247] | 75% | 89% | – | – |
| COc1cc(C)c(S(=O)(=O)N(C)CCOCC(=O)NCC2CCC(C(c3cccc(F)c3)N(C)C)CC2)c(C)c1 (stereo not drawn) [Example 248] | 81% | 90% | – | – |
| CN(C)C(c1ccc(F)cc1)C1CCC(CNC(=O)COCCN(C)S(=O)(=O)c2ccc(Cl)cc2Cl)CC1 (stereo not drawn) [Example 249] | 70% | 95% | – | – |
| COc1ccc(S(=O)(=O)N(C)CCOCC(=O)NC2CCC(C(c3cccc(F)c3)N(C)C)CC2)cc1 (stereo not drawn) [Example 250] | 70% | 84% | – | – |
| COc1cc(C)c(S(=O)(=O)N2CCC(OCC(=O)NC3CCC(C(c4cccc(F)c4)N(C)C)CC3)C2)c(C)c1 (stereo not drawn) [Example 251] | 77% | 98% | – | – |
| COc1cc(C)c(S(=O)(=O)N2CCC(OCC(=O)NCC3CCC(C(c4cccc(F)c4)N(C)C)CC3)C2)c(C)c1C (stereo not drawn) [Example 252] | 82% | 93% | – | – |
| COc1cc(C)c(S(=O)(=O)N2CCC(OCC(=O)NCCC3CCC(C(c4cccc(F)c4)N(C)C)CC3)C2)c(C)c1C (stereo not drawn) [Example 253] | 76% | 96% | – | – |
| COc1cc(C)c(S(=O)(=O)N(CCOCC(=O)NCCC2CCC(C(c3cccs3)N(C)C)CC2)Cc2ccccc2)c(C)c1C (stereo not drawn) [Example 254] | 83% | 94% | – | – |
| COc1ccc(S(=O)(=O)N2CCCCC2COCC(=O)NC2CCC(C(c3cccc(F)c3)N(C)C)CC2)cc1 (stereo not drawn) [Example 255] | 72% | 91% | – | – |
| CN(C)C(c1ccc(F)cc1)C1CCC(NC(=O)COC2CCCCC2N(C)S(=O)(=O)c2ccc(Cl)c(Cl)c2)CC1 (stereo not drawn) [Example 256] | 73% | 84% | – | – |
| CN(C)C(c1cccc(F)c1)C1CCC(CNC(=O)COC2CCN(S(=O)(=O)c3ccc(Cl)cc3)C2)CC1 (stereo not drawn) [Example 258] | 80% | 84% | – | – |
| CN(C)C(c1cccc(F)c1)C1CCC(CCNC(=O)COC2CCN(S(=O)(=O)c3ccc(Cl)cc3Cl)C2)CC1 (stereo not drawn) [Example 259] | 83% | 90% | – | – |
| COc1ccc(S(=O)(=O)N2CCC(OCC(=O)NCC3CCC(C(c4ccc(Cl)cc4)N(C)C)CC3)C2)cc1OC (stereo not drawn) [Example 260] | 76% | 88% | – | – |
| COc1ccc(S(=O)(=O)N2CCCCC2COCC(=O)NC2CCC(C(c3cccs3)N(C)C)CC2)cc1OC (stereo not drawn) [Example 261] | 72% | 85% | – | – |

| SMILES | μ (binding on the μ opioid receptor, % inhibition) (human μ opiate receptor) | 5-HT (inhibition of reuptake of serotonin, % inhibition) [1] | inhibition at 1 µM (human μ opiate receptor) | inhibition at 10 µM [1] |
| --- | --- | --- | --- | --- |
| COc1ccc(S(=O)(=O)N2CCC(OCC(=O)NCCC3CCC(C(c4cccc(F)c4)N(C)C)CC3)C2)cc1OC (stereo not drawn) [Example 262] | 82% | 90% | – | – |
| CN(C)C(c1ccc(Cl)cc1)C1CCC(CNC(=O)COCCN(C)S(=O)(=O)c2ccc(F)cc2)CC1 (stereo not drawn) [Example 263] | 72% | 102% | – | – |
| Cc1cc(C)c(S(=O)(=O)N2CCC(OCC(=O)NCCC3CCC(C(c4cccc(F)c4)N(C)C)CC3)C2)c(C)c1 (stereo not drawn) [Example 264] | 77% | 82% | – | – |
| COc1cc(C)c(S(=O)(=O)N2CCC(OCC(=O)NCC3CCC(C(c4cccc(F)c4)N(C)C)CC3)C2)c(C)c1 (stereo not drawn) [Example 265] | 79% | 95% | – | – |
| CN(C)C(c1cccc(F)c1)C1CCC(NC(=O)COCC2CCCN(S(=O)(=O)c3ccccc3)C2)CC1 (stereo not drawn) [Example 266] | 74% | 97% | – | – |
| CN(C)C(c1ccc(F)cc1)C1CCC(CNC(=O)COCC2CCCN2S(=O)(=O)c2ccc(Cl)c(Cl)c2)CC1 (stereo not drawn) [Example 267] | 73% | 94% | – | – |
| COc1ccc(S(=O)(=O)N2CCCC2COCC(=O)NC2CCC(C(c3cccc(F)c3)N(C)C)CC2)cc1 (stereo not drawn) [Example 268] | 70% | 92% | – | – |
| CN(C)C(c1ccc(Cl)cc1)C1CCC(CNC(=O)COC2CCCCC2N(C)S(=O)(=O)c2ccc(Cl)c(Cl)c2)CC1 (stereo not drawn) [Example 269] | 74% | 87% | – | – |
| CN(C)C(c1cccc(F)c1)C1CCC(NC(=O)COC2CCN(S(=O)(=O)c3ccccc3)C2)CC1 (stereo not drawn) [Example 271] | 72% | 93% | – | – |
| Cc1ccc(S(=O)(=O)N2CCC(OCC(=O)NCCC3CCC(C(c4cccs4)N(C)C)CC3)C2)cc1 (stereo not drawn) [Example 272] | 73% | 88% | – | – |
| Cc1ccc(S(=O)(=O)N(C)CCOCC(=O)NCC2CCC(C(c3ccc(Cl)cc3)N(C)C)CC2)cc1 (stereo not drawn) [Example 273] | 68% | 91% | – | – |
| CN(C)C(c1ccc(Cl)cc1)C1CCC(CCNC(=O)COCCN(C)S(=O)(=O)c2c(Cl)cccc2Cl)CC1 (stereo not drawn) [Example 274] | 68% | 81% | – | – |
| CN(C)C(c1cccc(F)c1)C1CCC(CNC(=O)COC2CCN(S(=O)(=O)c3ccc(F)cc3)C2)CC1 (stereo not drawn) [Example 275] | 71% | 80% | – | – |
| CN(C)C(c1cccs1)C1CCC(CNC(=O)COC2CCN(S(=O)(=O)c3ccccc3)CC2)CC1 (stereo not drawn) [Example 276] | 78% | 93% | – | – |
| CN(C)C(c1cccc(F)c1)C1CCC(NC(=O)COC2CCCN(S(=O)(=O)c3ccccc3)C2)CC1 (stereo not drawn) [Example 277] | 68% | 93% | – | – |
| O=C(COCCN(C1CC1)S(=O)(=O)c1c(Cl)cc(Cl)cc1Cl)NC1CCC(C(c2ccccc2)N2CCCC2)CC1 (stereo not drawn) [Example 603, 2-{2-[cyclopropyl-(2,4,6-trichlorobenzenesulfonyl)-amino]-ethoxy}-N-[4-(phenylpyrrolidin-1-ylmethyl)-cyclohexyl]-acetamide] | – | – | 45% | 74% |
| CN(CCOCC(=O)NC1CCC(C(c2ccccc2)N2CCCC2)CC1)S(=O)(=O)c1c(Cl)cc(Cl)cc1Cl (stereo not drawn) [Example 606, 2-{2-[methyl-(2,4,6-trichlorobenzenesulfonyl)-amino]-ethoxy}-N-[4-(phenylpyrrolidin-1-yl-methyl)-cyclohexyl]-acetamide] | – | – | 46% | 85% |
| CN(C)C(c1ccccc1)C1CCC(NC(=O)COC2CCCN(S(=O)(=O)c3c(Cl)cc(Cl)cc3Cl)C2)CC1 (stereo not drawn) [Example 608, N-[4-(dimethylaminophenylmethyl)-cyclohexyl]-2-[1-(2,4,6-trichlorobenzenesulfonyl)-piperidin-3-yloxy]-acetamide] | – | – | 89% | 81% |
